According to patent publication US7718681B2, “5-(1,3-Diaryl-1H-pyrazol-4-ylmethylene)-thiazolidine,2,4-dione derivatives useful as anticancer agent” (Korea Research Institute of Chemical Technology, priority 2005, dated 2010):

What was measured:
[1] = system: MCF-7; test: Cell cytotoxicity assay (SRB), MCF-7; assay type: cell-based; conditions: Homo sapiens, MCF7, MCF-7, 10 μM, 48 hours, read-out: % of inhibition of growth of cancer cells
Description: (§1) A549, HT29 and MCF-7 were used to measure anticancer activity. The cancer cells were those distributed from the National Cancer Institute (NCI) of the U.S. and cultured by the Korea Research Institute of Chemical Technology (KRICT), which had been derived from human tumor cell lines. The cells were cultured in a 5% CO2 incubator at 37° C. with constant temperature and humidity using RPMI 1640 culture medium fortified with 5% fetal bovine serum. Subculturing was carried out once in 3-4 days. A PBS (phosphate buffered saline) solution in which 0.25% trypsin and […] trans-1,2-diaminocyclohexane-N,N,N,N-tetraacetic acid (CDTA) were dissolved was used to separate the cells.
(§2) The SRB (sulforhodamine B) assay method, which was developed in 1989 to measure in vitro anticancer activity of drugs by the NCI, was used. The cells were separated using a trypsin-CDTA solution and were plated on a 96-well microplate (Falcon), about 2×10^3 cells per each well. The cells were cultured in a CO2 incubator for 24 hours and were attached to the bottom of the plate. After removing the culture medium using an aspirator, each of Compound No. 78, Compound No. 79 and Doxorubicin, a control drug, diluted in a culture medium was added to the wells containing the cells, with a log dose of 6 equivalents, 3 times, […] at one time. The cells were cultured for 48 more hours. If required, dimethylsulfoxide (DMSO) was used to dissolve the compounds. The diluted compound solutions were filtered through a […] filter before being added to the cells. […] Then, absorbance was measured at 520 nm using a microplate reader. In order to quantify the anticancer effect of the compounds, number of cells was counted for the cases where the drug was added (Tz), the cells were cultured for 48 hours with a culture medium containing no drug (C) and the cells were cultured for 48 hours with a culture medium containing the drug (T). Anticancer activity was calculated by the following equations 1 and 2. […]

[2] = target: T1, CDC25B (Homo sapiens, UniProt P30305); test: CDC25B enzyme assay; assay type: biochemical; conditions: catalytic domain of CDC25B (aa 378-566) GST fusion, 20 μm FDP, 1 hour at room temperature, fluorescence
T1 construct: Catalytic domain of CDC25B (aa 378-566) was expressed and produced in E. coli into a GST fusion protein; GST; made in house; host or cells: E. coli
T1 sequence (P30305 378-566 isoform P30305-2): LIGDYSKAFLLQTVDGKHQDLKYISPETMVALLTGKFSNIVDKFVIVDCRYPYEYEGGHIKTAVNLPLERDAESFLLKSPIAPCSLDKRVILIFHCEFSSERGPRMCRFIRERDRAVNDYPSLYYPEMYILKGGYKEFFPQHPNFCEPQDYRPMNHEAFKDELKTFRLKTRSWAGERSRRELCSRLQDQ
Description: Catalytic domain of CDC25B (aa 378-566) was expressed and produced in E. coli into a GST fusion protein, which was used as zymogen. Enzyme assay was carried out on a 96-well plate, with the final reaction volume per well adjusted to 200 μL. 170 μL of a buffer solution (30 mM Tris buffer, pH 8.5, 75 mM NaCl, 0.67 mM EDTA, 1 mM DTT), 20 μL (0.2 μg) of CDC25B enzyme and 10 μL of the test compound dissolved in DMSO were added, so that the final concentration became 1 μg/mL CDC25B and 20 μm FDP. Measurement was made after culturing at room temperature for 1 hour. FDP and DTT were added to the buffer solution just before assay, so that a fresh status could be maintained. After 1 hour of culturing, fluorescence resultant from the enzymatic reaction was measured at 485 nm (excitation) and 538 nm (emission).
The screened compound was treated to a final concentration of 1, 2, 5 and 10 μm to obtain the % inhibition value. If the inhibitory effect was low (less than 50% at […]), the concentration of the compound was increased to 20 μm and the % inhibition value and the IC50 value were obtained.

[3] = system: C33A human uterine cancer cell line
Description: In order to verify the in vivo anticancer effect of the compounds of the present invention, C33A human uterine cancer cell line was subcutaneously injected at the abdominal walls of 6- to 8-week-old male nude mice. […] For a positive control, cisplatin (4 mg/kg), which is widely used as an anticancer agent in clinical tests, was used. The dosage given was 0.25 mL per each administration once a day for a period of 7 consecutive days. The volume of the tumor was calculated by the following equation 3, by measuring the long and short axes with a caliper. Tumor volume=(Short axis,mm)^2×(Long axis,mm)×0.523 Equation 3

[4] = system: HT29; test: Cell cytotoxicity assay (SRB), HT29; assay type: cell-based; conditions: Homo sapiens, HT-29, HT29, 10 μM, 48 hours, read-out: % of inhibition of growth of cancer cells
Description: as §1, §2

[5] = system: A549; test: Cell cytotoxicity assay (SRB), A549; assay type: cell-based; conditions: Homo sapiens, A549, 10 μM, 48 hours, read-out: % of inhibition of growth of cancer cells
Description: as §1, §2

Compound | inhibition at 10 µM [1] [%] | IC50 [2] [nM] | anticancer activity (tumor volume) ([3]; C33A tumor in male nude mice, into the abdominal cavity once a day for 7 days, FIG. 1, cisplatin 4 mg/kg positive control) | negative responses (reduced motion, lack of appetite) ([3]; mouse, in vivo) | inhibition at 10 µM [4] [%] | inhibition at 10 µM [5] [%]
CCOc1ccc(-c2nn(-c3ccccc3)cc2C=C2SC(=O)N(C)C2=O)cc1Br [Compound 78, 5-[3-(3-bromo-4-ethoxy-phenyl)-1-phenyl-1H-pyrazol-4-ylmethylene]-3-methyl-thiazolidine-2,4-dione] | 67.3 | 2260 | comparable to that of cisplatin | did not shows any negative responses | 59.7 | 67.5
COc1cccc2c1C(=O)c1c(O)c3c(c(O)c1C2=O)C[C@@](O)(C(=O)CO)C[C@@H]3O[C@H]1C[C@H](N)[C@H](O)[C@H](C)O1 [Doxorubicin, reference compound] | 63.2 |  |  |  | 51.1 | 39
CCOc1ccc(-c2nn(-c3ccccc3)cc2C=C2SC(=O)N(CC)C2=O)cc1Br [Compound 79, 5-[3-(3-bromo-4-ethoxy-phenyl)-1-phenyl-1H-pyrazol-4-ylmethylene]-3-ethyl-thiazolidine-2,4-dione] | 31.1 | 1410 |  |  | 82.4 | 39.1
